Reference: patent US20020137929A1, “1 - (3-heterocyclylphenyl) isothiourea, -isourea, -guanidine and -amidine herbicidal agents” (Intellectual Property Department, BASF Aktiengesellschaft, priority 1998, published 2002)

Assays:
ZEAMX (Corn, Field) = test: Preemergence herbicidal evaluation; format: in vivo, Zea mays; details: rated 4-5 weeks after treatment
Procedure, shortened: (§1)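 Scores (0–9) reflect visual comparison with control plants for stand, vigor, malformation, size and chlorosis. Compound was applied to the soil after sowing, before emergence, as an aqueous acetone spray (about 0.0156–0.500 kg/ha), and cups were kept in a greenhouse for 4–5 weeks.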

ABUTH (Velvetleaf) = test: Postemergence herbicidal evaluation; format: in vivo, Abutilon theophrasti; details: postemergence
Procedure, shortened: (§2)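 First, seedlings were raised for around two weeks. Next, test material in 50/50 acetone/water containing 0.5% TWEEN 20 was sprayed through a nozzle at 40 psi, equivalent to about 0.0156–0.500 kg/ha. Finally, after 4–5 weeks in the greenhouse, plants were rated 0–9.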

ORYSAT (Rice, Tebonnet) = test: Postemergence herbicidal evaluation; format: in vivo, Oryza sativa, (L.) Tebonnet; details: postemergence
Procedure, shortened: as §2

[1] = test system: ECHORC (Watergrass (Calif.)); test: Preemergence weed control under flooded paddy conditions; format: in vivo, Echinochloa oryzoides; details: rated 3-4 weeks after treatment
Procedure, shortened: (§3)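 Seeds or propagules sown in top 0.5 cm of silt loam soil, flooded 1.5 to 3 cm above surface throughout. Compound in 50/50 v/v aqueous/acetone pipetted into flood water at about 0.0313 to 0.500 kg/ha. Visual 0-9 rating versus control after three to four weeks in greenhouse.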

MOOVA (Monochoria) = test: as above; format: in vivo, Monochoria vaginalis; details: rated 3-4 weeks after treatment
Procedure, shortened: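 Flooded-pot preemergence screen with silt loam and seeds in the upper 0.5 cm. Dose about 0.0313 to 0.500 kg/ha, delivered into flood water; visual 0-9 score after 3 to 4 weeks.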

CYPIR (Rice Flatsedge) [2] = test: as above; format: in vivo, Cyperus iria; details: rated 3-4 weeks after treatment
Procedure, shortened: as §3

[3] = test system: IPOHE (Morningglory, Ivyleaf); test: Preemergence herbicidal evaluation; format: in vivo, Ipomoea hederacea; details: rated 4-5 weeks after treatment
Procedure, shortened: as §1

CYPIR (Rice Flatsedge) [4] = test: Postemergence weed control under flooded paddy conditions; format: in vivo, Cyperus iria; details: postemergence weeds, 3-4 weeks after treatment
Description: (§4) Results of herbicide evaluation are expressed on a rating scale (0-9). The scale is based upon a visual observation of plant stand, vigor, malformation, size, chlorosis and overall plant appearance as compared with a control.
(§5) Plastic containers containing weeds which are 3 to 5 cm tall and rice seedlings at the 1.5 to 2.5 leaf stage are flooded with water. The water is maintained at 1.5 to 3 cm above the soil surface for the duration of the experiment. Test compounds are applied as aqueous/ acetone mixtures 50/50 v/v directly into the flood water to provide the equivalent of about 0.0313 to 0.500 kg/ha of active ingredient. The treated containers are placed on greenhouse benches and cared for in accordance with conventional greenhouse procedures. Three to four weeks after treatment, the test is terminated and each container is examined and herbicidal effect rated according to the rating system provided in Example 37. The compounds evaluated are reported by compound number given in Example 37.

SETVI (Foxtail, Green) = test: Postemergence herbicidal evaluation; format: in vivo, Setaria viridis; details: postemergence
Procedure, shortened: as §2

ECHCG (Barnyardgrass) = test: Postemergence herbicidal evaluation; format: in vivo, Echinochloa crus-galli; details: postemergence
Procedure, shortened: as §2

[5] = test system: TRZAWR (Wheat, Winter, cv Riband); test: Preemergence herbicidal evaluation; format: in vivo, Triticum aestivum; details: rated 4-5 weeks after treatment
Procedure, shortened: as §1

GALAP (Galium) = test: Postemergence herbicidal evaluation; format: in vivo, Galium aparine; details: postemergence
Procedure, shortened: as §2

[6] = test system: SAGPY (Arrowhead (Pygmaea)); test: Postemergence weed control under flooded paddy conditions; format: in vivo, Sagittaria pygmaea; details: postemergence weeds, 3-4 weeks after treatment
Description: as §4, §5

## CCOC(=O)CN1C(=O)C(Cc2ccccc2)SC1=Nc1cc(-n2c(=O)cc(C(F)(F)F)n(C)c2=O)c(F)cc1Cl (stereo not shown) [Compound 24, Ethyl 5-benzyl-2-{{2-chloro-5-[3,6-dihydro-3-methyl-2,6-dioxo-4-(trifluoromethyl)-1(2H)-pyrimidinyl]-4-fluorophenyl}imino}-4-oxo-3-thiazolidineacetate]
ZEAMX (Corn, Field); rate 0.0625 kg/ha
  ZEAMX preemergence herbicidal rating: 0.0
ZEAMX (Corn, Field); rate 0.1250 kg/ha
  ZEAMX preemergence herbicidal rating: 0.0
ZEAMX (Corn, Field); rate 0.2500 kg/ha
  ZEAMX preemergence herbicidal rating: 1.0
ABUTH (Velvetleaf); rate 0.0158 kg/ha
  ABUTH herbicidal rating: 9.0
ABUTH (Velvetleaf); rate 0.0315 kg/ha
  ABUTH herbicidal rating: 9.0
ABUTH (Velvetleaf); rate 0.0630 kg/ha
  ABUTH herbicidal rating: 9.0
ORYSAT (Rice, Tebonnet); rate 0.0158 kg/ha
  ORYSAT herbicidal rating: 2.5
ORYSAT (Rice, Tebonnet); rate 0.0315 kg/ha
  ORYSAT herbicidal rating: 3.0
ORYSAT (Rice, Tebonnet); rate 0.0630 kg/ha
  ORYSAT herbicidal rating: 3.0
[1]; 0.0313 kg/ha
  Herbicidal rating ECHORC: 4.0
[1]; 0.0625 kg/ha
  Herbicidal rating ECHORC: 9.0
[1]; 0.1250 kg/ha
  Herbicidal rating ECHORC: 9.0
[1]; 0.2500 kg/ha
  Herbicidal rating ECHORC: 9.0
MOOVA (Monochoria); 0.0313 kg/ha
  Herbicidal rating MOOVA: 0.0
MOOVA (Monochoria); 0.0625 kg/ha
  Herbicidal rating MOOVA: 9.0
MOOVA (Monochoria); 0.1250 kg/ha
  Herbicidal rating MOOVA: 9.0
MOOVA (Monochoria); 0.2500 kg/ha
  Herbicidal rating MOOVA: 9.0
CYPIR (Rice Flatsedge) [2]; 0.0313 kg/ha
  Herbicidal rating CYPIR: 0.0
CYPIR (Rice Flatsedge) [2]; 0.0625 kg/ha
  Herbicidal rating CYPIR: 0.0
CYPIR (Rice Flatsedge) [2]; 0.1250 kg/ha
  Herbicidal rating CYPIR: 0.0
CYPIR (Rice Flatsedge) [2]; 0.2500 kg/ha
  Herbicidal rating CYPIR: 0.0
[3]; rate 0.0625 kg/ha
  IPOHE preemergence herbicidal rating: 0.0
[3]; rate 0.1250 kg/ha
  IPOHE preemergence herbicidal rating: 0.0
[3]; rate 0.2500 kg/ha
  IPOHE preemergence herbicidal rating: 0.0
CYPIR (Rice Flatsedge) [4]; rate 0.0313 kg/ha
  Herbicidal rating CYPIR: 0.0
CYPIR (Rice Flatsedge) [4]; rate 0.0625 kg/ha
  Herbicidal rating CYPIR: 0.0
CYPIR (Rice Flatsedge) [4]; rate 0.1250 kg/ha
  Herbicidal rating CYPIR: 0.0
CYPIR (Rice Flatsedge) [4]; rate 0.2500 kg/ha
  Herbicidal rating CYPIR: 0.0
SETVI (Foxtail, Green); rate 0.0158 kg/ha
  SETVI herbicidal rating: 0.0
SETVI (Foxtail, Green); rate 0.0315 kg/ha
  SETVI herbicidal rating: 0.0
SETVI (Foxtail, Green); rate 0.0630 kg/ha
  SETVI herbicidal rating: 0.0
ECHCG (Barnyardgrass); rate 0.0158 kg/ha
  ECHCG herbicidal rating: 0.0
ECHCG (Barnyardgrass); rate 0.0315 kg/ha
  ECHCG herbicidal rating: 0.0
ECHCG (Barnyardgrass); rate 0.0630 kg/ha
  ECHCG herbicidal rating: 0.0
[5]; rate 0.0625 kg/ha
  TRZAWR preemergence herbicidal rating: 0.0
[5]; rate 0.1250 kg/ha
  TRZAWR preemergence herbicidal rating: 0.0
[5]; rate 0.2500 kg/ha
  TRZAWR preemergence herbicidal rating: 0.0
GALAP (Galium); rate 0.0158 kg/ha
  GALAP herbicidal rating: 1.0
GALAP (Galium); rate 0.0315 kg/ha
  GALAP herbicidal rating: 4.0
GALAP (Galium); rate 0.0630 kg/ha
  GALAP herbicidal rating: 6.0
[6]; rate 0.0313 kg/ha
  Herbicidal rating SAGPY: 0.0
[6]; rate 0.0625 kg/ha
  Herbicidal rating SAGPY: 0.0
[6]; rate 0.1250 kg/ha
  Herbicidal rating SAGPY: 0.0
[6]; rate 0.2500 kg/ha
  Herbicidal rating SAGPY: 0.0

## Cn1c(C(F)(F)F)cc(=O)n(-c2cc(N=C3SCC(=O)N3CC(=O)OCC3CCCCC3)c(Cl)cc2F)c1=O [Compound 123, Cyclohexylmethyl 2-{{2-chloro-5-[3,6-dihydro-3-methyl-2,6-dioxo-4-(trifluoromethyl)-1(2H)-pyrimidinyl]-4-fluorophenyl}imino}-4-oxo-3-thiazolidineacetate]
ZEAMX (Corn, Field); rate 0.0156 kg/ha
  Preemergence herbicidal rating ZEAMX: 0.0
ZEAMX (Corn, Field); rate 0.0313 kg/ha
  Preemergence herbicidal rating ZEAMX: 1.0
ZEAMX (Corn, Field); rate 0.0625 kg/ha
  Preemergence herbicidal rating ZEAMX: 1.0
ZEAMX (Corn, Field); rate 0.1250 kg/ha
  Preemergence herbicidal rating ZEAMX: 5.0
ZEAMX (Corn, Field); rate 0.2500 kg/ha
  Preemergence herbicidal rating ZEAMX: 7.0
ZEAMX (Corn, Field); rate 0.5000 kg/ha
  Preemergence herbicidal rating ZEAMX: 7.0
ABUTH (Velvetleaf); rate 0.0156 kg/ha
  Herbicidal rating ABUTH: 9.0
ABUTH (Velvetleaf); rate 0.0313 kg/ha
  Herbicidal rating ABUTH: 9.0
ABUTH (Velvetleaf); rate 0.0625 kg/ha
  Herbicidal rating ABUTH: 9.0
ABUTH (Velvetleaf); rate 0.1250 kg/ha
  Herbicidal rating ABUTH: 9.0
ORYSAT (Rice, Tebonnet); rate 0.0156 kg/ha
  Herbicidal rating ORYSAT: 4.0
ORYSAT (Rice, Tebonnet); rate 0.0313 kg/ha
  Herbicidal rating ORYSAT: 4.0
ORYSAT (Rice, Tebonnet); rate 0.0625 kg/ha
  Herbicidal rating ORYSAT: 5.5
ORYSAT (Rice, Tebonnet); rate 0.1250 kg/ha
  Herbicidal rating ORYSAT: 5.5
[1]; 0.0313 kg/ha
  herbicidal effect rating, ECHORC: 7.0
[1]; 0.0625 kg/ha
  herbicidal effect rating, ECHORC: 9.0
[1]; 0.1250 kg/ha
  herbicidal effect rating, ECHORC: 9.0
[1]; 0.2500 kg/ha
  herbicidal effect rating, ECHORC: 9.0
MOOVA (Monochoria); 0.0313 kg/ha
  herbicidal effect rating, MOOVA: 6.0
MOOVA (Monochoria); 0.0625 kg/ha
  herbicidal effect rating, MOOVA: 7.0
MOOVA (Monochoria); 0.1250 kg/ha
  herbicidal effect rating, MOOVA: 9.0
MOOVA (Monochoria); 0.2500 kg/ha
  herbicidal effect rating, MOOVA: 9.0
CYPIR (Rice Flatsedge) [2]; 0.0313 kg/ha
  herbicidal effect rating, CYPIR: 6.0
CYPIR (Rice Flatsedge) [2]; 0.0625 kg/ha
  herbicidal effect rating, CYPIR: 5.0
CYPIR (Rice Flatsedge) [2]; 0.1250 kg/ha
  herbicidal effect rating, CYPIR: 9.0
CYPIR (Rice Flatsedge) [2]; 0.2500 kg/ha
  herbicidal effect rating, CYPIR: 9.0
[3]; rate 0.0156 kg/ha
  Preemergence herbicidal rating IPOHE: 0.0
[3]; rate 0.0313 kg/ha
  Preemergence herbicidal rating IPOHE: 0.0
[3]; rate 0.0625 kg/ha
  Preemergence herbicidal rating IPOHE: 0.0
[3]; rate 0.1250 kg/ha
  Preemergence herbicidal rating IPOHE: 7.0
[3]; rate 0.2500 kg/ha
  Preemergence herbicidal rating IPOHE: 9.0
[3]; rate 0.5000 kg/ha
  Preemergence herbicidal rating IPOHE: 9.0
SETVI (Foxtail, Green); rate 0.0156 kg/ha
  Herbicidal rating SETVI: 9.0
SETVI (Foxtail, Green); rate 0.0313 kg/ha
  Herbicidal rating SETVI: 9.0
SETVI (Foxtail, Green); rate 0.0625 kg/ha
  Herbicidal rating SETVI: 9.0
SETVI (Foxtail, Green); rate 0.1250 kg/ha
  Herbicidal rating SETVI: 9.0
ECHCG (Barnyardgrass); rate 0.0156 kg/ha
  Herbicidal rating ECHCG: 5.0
ECHCG (Barnyardgrass); rate 0.0313 kg/ha
  Herbicidal rating ECHCG: 5.0
ECHCG (Barnyardgrass); rate 0.0625 kg/ha
  Herbicidal rating ECHCG: 7.0
ECHCG (Barnyardgrass); rate 0.1250 kg/ha
  Herbicidal rating ECHCG: 9.0
[5]; rate 0.0156 kg/ha
  Preemergence herbicidal rating TRZAWR: 0.0
[5]; rate 0.0313 kg/ha
  Preemergence herbicidal rating TRZAWR: 0.0
[5]; rate 0.0625 kg/ha
  Preemergence herbicidal rating TRZAWR: 0.0
[5]; rate 0.1250 kg/ha
  Preemergence herbicidal rating TRZAWR: 1.0
[5]; rate 0.2500 kg/ha
  Preemergence herbicidal rating TRZAWR: 1.0
[5]; rate 0.5000 kg/ha
  Preemergence herbicidal rating TRZAWR: 1.0
GALAP (Galium); rate 0.0156 kg/ha
  Herbicidal rating GALAP: 2.0
GALAP (Galium); rate 0.0313 kg/ha
  Herbicidal rating GALAP: 4.0
GALAP (Galium); rate 0.0625 kg/ha
  Herbicidal rating GALAP: 6.0
GALAP (Galium); rate 0.1250 kg/ha
  Herbicidal rating GALAP: 7.0
